The assay concerns 4T-1 cells of mammary cancer. Nature of the assay: Orthotopic 4T1 breast cancer model, lung metastases. Particulars: after 3 weeks. The class given is in vivo, BALB/c mice. From the text: The objective of this study was to evaluate the capacity of a suspension of liposomal MTP-PE, prepared according to the invention and administered orally, to inhibit the development of pulmonary metastases from cancer of the mammary gland.
The experimental model consisted of using immunocompetent mice of the BALB/c strain and performing an orthotopic transplant of 4T-1 cells of mammary cancer of murine origin.
This orthotopic graft forms a tumor reproducing human breast cancer which disseminates and forms metastases in the lungs after 3 weeks.
Suspensions of liposomes were prepared according to the method indicated in example 1.
4T1 tumors were induced on day zero (DO) orthotopically in 60 BALB/c female mice under anesthesia.
A total of 300,000 4T1 tumor cells were slowly injected into the right thoracic breast tissue.
Animals were randomized by tumor size on Day 9 into six groups of ten animals each […]. Homogeneity of tumor sizes between groups was tested by analysis of variance (ANOVA).
The animals of Groups 1, 2 and 3 were treated respectively with Batch H3 (control), Batch G3 and Batch G3 twice a week orally.
Additionally, animals in Groups 2 and 4 were treated with intravenous injections of doxorubicin at 8 mg/kg once weekly for 3 weeks. […] The number of lung metastases was counted using a binocular loupe.

Results on one compound are retold here after US20240108685A1, “ORAL LIPOSOMAL COMPOSITIONS” (priority 2021, published 2024).

With `COc1cccc2c1C(=O)c1c(O)c3c(c(O)c1C2=O)C[C@@](O)(C(=O)CO)C[C@@H]3O[C@H]1C[C@H](N)[C@H](O)[C@H](C)O1` [doxorubicin], the “Effect on lung metastases (in words)” value is recorded as “did not show significant efficacy”.
